The record followed here is US6358942B1, “Phenyloxazolidinones having a c-c bond 4-8 membered heterocyclic rings” (Pharmacia & Upjohn Company, priority 1995, dated 2002).

Like-named read-outs stand apart in the source and are kept apart here.

The assay relates to Staphylococcus aureus or Streptococcus species. The assay is described as follows: Murine Assay: in vivo antimicrobial activity, survival of mice infected intraperitoneally with bacteria. How it is done:
Antimicrobial activity was tested in vivo using the Murine Assay procedure. Groups of female mice (six mice of 18-20 grams each) were injected intraperitoneally with bacteria which were thawed just prior to use and suspended in brain heart infusion with 4% brewers yeast (Staphylococcus aureus) or brain heart infusion (Streptococcus species). Antibiotic treatment at six dose levels per drug was administered one hour and five hours after infection by either oral intubation or subcutaneous routes. Survival was observed daily for six days. ED50 values based on mortality ratios were calculated using probit analysis. The subject compounds are compared against well-known antimicrobials vancomycin and U-100592 as controls. See “Upjohn Oxazolidinone Antibacterial Agent”, posters presented at the 35th Interscience Conference on Antimicrobial Agents and Chemotherapy.

Where [1] appears, read: Table 1, female mice, treatment 1 h and 5 h after infection, oral intubation or subcutaneous, survival over six days, probit analysis of mortality ratios, read-out: ED50.
The mark [2] stands for this setting: Table 2, female mice, treatment 1 h and 5 h after infection, oral intubation or subcutaneous, survival over six days, probit analysis of mortality ratios, read-out: ED50.
Where [3] appears, read: Table 2, female mice, treatment 1 h and 5 h after infection, oral intubation or subcutaneous, survival over six days, probit analysis of mortality ratios.
[4] abbreviates: Table 1, female mice, treatment 1 h and 5 h after infection, oral intubation or subcutaneous, survival over six days, probit analysis of mortality ratios.

In general, ED50 refers to the midpoint of the dose-response relation. On to `CC(=O)NC[C@H]1CN(c2ccc(C3CCN(C(=O)c4ccno4)CC3)c(F)c2)C(=O)O1` [Example 24, (S)-(−)-N-[[3-[4-[1-(Isoxazole-5-carbonyl)-4-piperidinyl]-3-fluorophenyl]-2-oxo-5-oxazolidinyl]methyl]acetamide], for which the 50% effective dose (ED50) under setting [1] is > 20 mg/kg. With `CC(=O)NC[C@H]1CN(c2ccc(C3=CCN(C(=O)CO)CCC3)c(F)c2)C(=O)O1` [Example 76, (S)-(−)-N-[[3-[4-[1-(Hydroxyacetyl)-2,3,4,7-tetrahydro-1H-azepin-5-yl]-3-fluorophenyl]-2-oxo-5-oxazolidinyl]methyl]acetamide], under setting [2], the 50% effective dose (ED50) is > 20 mg/kg. As to `CC(=O)NC[C@H]1CN(c2ccc(C3=CC[S+]([O-])CC3)cc2)C(=O)O1` (stereo partly drawn) [Example 64, (S)-(−)-N-[[3-[4-(3 6-Dihydro-2H-thiopyran-4-yl)phenyl]-2-oxo-5-oxazolidinyl]methyl]acetamide S-oxide], the “ED50” value under setting [3] was 4.60 mg/kg. As to `CC(=O)NC[C@H]1CN(c2ccc(C3CCN(C(=O)COCc4ccccc4)CC3)c(F)c2)C(=O)O1` [Example 21, (S)-(−)-N-[[3-[4-[1-[(Benzyloxy)acetyl]-4-piperidinyl]-3-fluorophenyl]-2-oxo-5-oxazolidinyl]methyl]acetamide], the median effective dose (ED50) under setting [1] is > 20 mg/kg. In turn, `COC(=O)N1CC(c2ccc(N3C[C@H](CNC(C)=O)OC3=O)cc2F)C1` [Example 83, (S)-N-[[3-[3-Fluoro-4-[1-(methoxycarbonyl)-3-azetidinyl]phenyl]-2-oxo-5-oxazolidinyl]methyl]acetamide] displayed an ED50 of 7.5 mg/kg.

With `CC(=O)NC[C@H]1CN(c2ccc(C3CCOCC3)c(F)c2)C(=O)O1` [Example 48, (S)-(−)-N-[[3-[4-[Tetrahydro-2H-pyran-4-yl]-3-fluoropheny]-2-oxo-5-oxazolidinyl]methyl]acetamide], under setting [3], the 50% effective dose (ED50) amounted to 17.50 mg/kg. For the compound `COCC(=O)N1CC(C)(c2ccc(N3C[C@H](CNC(C)=O)OC3=O)cc2F)C1` [Example 4, (S)-N-[[3-[3-Fluoro-4-[1-(methoxyacetyl)-3-(3-methyl) -azetidinyl]-phenyl]-2-oxo-5-oxazolidinyl]methyl]-acetamide], the “ED50” value under setting [4] is given as >20.00 mg/kg.

For `CC(=O)NC[C@H]1CN(c2ccc(C3CCS(=O)(=O)CC3)c(F)c2)C(=O)O1` [Example 51, (S)-(−)-N-[[3-[3-Fluoro-4-(tetrahydro-2H-thiopyran-4-yl)phenyl]-2-oxo-5-oxazolidinyl]methyl]acetamide S,S-dioxide], the median effective dose (ED50) under setting [3] was 2.80 mg/kg. As for `CC(=O)NC[C@H]1CN(c2ccc(C3=CCN(C(=O)COC(C)=O)CC3)c(F)c2)C(=O)O1` [Example 39, (S)-(−)-N-[[2-Oxo-3-[3-fluoro-4-[-1-[(acetoxy)acetyl]-3,6-dihydro-2H-pyridin-4-yl]phenyl]-5-oxazolidinyl]methyl]acetamide], under setting [1], the median effective dose (ED50) was 3 mg/kg. For `CC(=O)NC[C@H]1CN(c2ccc(C3=CCS(=O)(=O)C3)c(F)c2)C(=O)O1` [69(a), (S)-N-[[3-[3-Fluoro-4-(2,5-dihydro-1,1-dioxido-3-thienyl)-phenyl]-2-oxo-5-oxazolidinyl]methyl]acetamide], the ED50 under setting [2] is 10 mg/kg. On to `CC(=O)NC[C@H]1CN(c2ccc(C3(C)CN(C=O)C3)c(F)c2)C(=O)O1` [Example 5, (S)-N-[[3-[3-Fluoro-4-[1-(formyl)-3-(3-methyl)-azetidinyl]-phenyl]-2-oxo-5-oxazolidinyl]methyl]-acetamide], for which the “ED50” value under setting [4] is on record as 3.60 mg/kg.

On to `CC(=O)NC[C@H]1CN(c2ccc(C3=CCN(C=O)CC3)c(F)c2)C(=O)O1` [Example 56], for which, under setting [3], the “ED50” value stood at 4.40 mg/kg. Consider `CC(=O)NC[C@H]1CN(c2ccc(C3CCN(C(=O)c4cc5ccccc5[nH]4)CC3)c(F)c2)C(=O)O1` [Example 23, (S)-(−)-N-[[3-[4-[1-(Indole-2-carbonyl)-4-piperidinyl]-3-fluorophenyl]-2-oxo-5-oxazolidinyl]methyl]acetamide], for which the ED50 under setting [1] is > 20 mg/kg.
